Assay results taken from patent publication US9562012B2, “PPAR-sparing compounds for the treatment of metabolic diseases” (Metabolic Solutions Development Company, LLC, priority 2013, dated 2017).
Structures can show the parent of a compound that is named as a salt.

Columns and labels:
[1] = target: human PPARγ ligand binding domain (LBD) (Homo sapiens (Human), UniProt P37231); test: TR-FRET PPARγ competitive binding assay (Invitrogen LanthaScreen)
Procedure: The assays are conducted by first evaluation of the direct interactions of the molecules with the ligand binding domain of PPARγ. […] PPARγ binding is measured by a TR-FRET competitive binding assay using Invitrogen LanthaScreen™ TR-FRET PPARγ Competitive Binding Assay (Invitrogen #4894). This assay uses a terbium-labeled anti-GST antibody to label the GST tagged human PPARγ ligand binding domain (LBD). A fluorescent small molecule pan-PPAR ligand tracer binds to the LBD causing energy transfer from the antibody to the ligand resulting in a high TR-FRET ratio. […] The TR-FRET ratio is determined by reading the fluorescence emission at 490 and 520 nm using a Synergy2 plate reader (BioTek). The ability of compounds of the present invention to bind to PPARγ may also be measured using a commercial binding assay (Invitrogen Corporation, Carlsbad, Calif.) that measures the test compounds ability to bind with PPAR-LBD/Fluormone PPAR Green complex. These assays are performed on three occasions with each assay using duplicate wells at each concentration of tested compound. The data are mean and SEM of the values obtained from the three experiments. […] Compounds were added at the concentrations shown, which ranged from 0.1-100 micromolar.

[2] = system: diabetic KKAy mice; test: Glucose, insulin and triglyceride in diabetic KKAy mice; format: in vivo; details: orally dosed 93 mg/kg for 4 days, T/C normalized to vehicle activity
Procedure: The insulin sensitizing and antidiabetic pharmacology are measured in the KKA^Y mice as previously reported [Hofmann, C., Lomez, K., and Colca, J. R. (1991). Glucose transport deficiency corrected by treatment with the oral anti-hyperglycemic agent Pioglitazone. Endocrinology, 129:1915-1925.]. Compounds are formulated in 1% sodium carboxy methylcellulose, and 0.01% tween 20 and dosed daily by oral gavage. […] Compounds were formulated by suspension and orally dosed to KKA^Y mice at 93 mg/kg for 4 days. The compounds were first dissolved in DMSO and then placed into aqueous suspension containing 7-10% DMSO, 1% sodium methylcarboxycellulose, and 0.01% Tween 20. On the fifth day, the mice were fasted and blood samples were obtained approximately 18 hours after the last dose. The parameters were measured by standard assay methods. Data are mean and SEM N=6-12 mice.

human PPARγ ligand binding domain (LBD), sequence (P37231 238-503): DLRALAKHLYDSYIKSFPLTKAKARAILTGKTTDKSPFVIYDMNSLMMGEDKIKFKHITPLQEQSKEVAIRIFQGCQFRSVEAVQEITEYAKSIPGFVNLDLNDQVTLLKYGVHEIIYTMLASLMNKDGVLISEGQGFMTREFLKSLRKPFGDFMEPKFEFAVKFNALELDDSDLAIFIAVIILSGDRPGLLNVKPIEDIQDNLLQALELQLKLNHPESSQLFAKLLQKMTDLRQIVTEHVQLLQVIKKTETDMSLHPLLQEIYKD

| IC50 [1] [µM] | SMILES | Gluclose (mean T/C) [2] |
| --- | --- | --- |
| > 250 | CCO[C@H](Cc1ccc(OC[C@@H](O)c2cccc(OC)c2)cc1)C(=O)NOC [Compound 18, (2R)-2-ethoxy-3-{4-[(2S)-2-hydroxy-2-(3-methoxyphenyl)ethoxy]phenyl}-N-methoxypropanamide] | – |
| > 250 | CCO[C@@H](Cc1ccc(OCc2cc(OC)ccn2)cc1)C(=O)NOC.Cl [Compound 5, (2S)-2-ethoxy-N-methoxy-3-{4-[(4-methoxypyridin-2-yl)methoxy]phenyl}propanamide hydrochloride] | 0.97 |
| 191 | CCO[C@@H](Cc1ccc(OC[C@H](O)c2cccc(OC)c2)cc1)C(=O)N(C)OC [Compound 16, (2S)-2-Ethoxy-3-{4-[(2R)-2-hydroxy-2-(3-methoxyphenyl)ethoxy]phenyl}-N-methoxy-N-methylpropanamide] | – |
| > 250 | CCO[C@@H](Cc1ccc(OCC(=O)c2cccc(OC)c2)cc1)C(=O)N(C)OC [Compound 14, (2S)-2-ethoxy-N-methoxy-3-{4-[2-(3-methoxyphenyl)-2-oxoethoxy]phenyl}-N-methylpropanamide] | 0.76 |
| 3.7 | CCO[C@@H](Cc1ccc(OCCc2ccc(OS(C)(=O)=O)cc2)cc1)C(=O)N(C)OC [Compound 21] | – |
| 164 | CCO[C@@H](Cc1ccc(OC[C@@H](O)c2cccc(OC)c2)cc1)C(=O)NOC [Compound 12, (2S)-2-ethoxy-3-{4-[(2S)-2-hydroxy-2-(3-methoxyphenyl)ethoxy]phenyl}-N-methoxypropanamide] | 0.49 |
| 61.4 | CCO[C@@H](Cc1ccc(OCC(=O)c2cccc(OC)c2)cc1)C(=O)NOC [Compound 13, (2S)-2-ethoxy-N-methoxy-3-{4-[2-(3-methoxyphenyl)-2-oxoethoxy]phenyl}Propanamide] | 0.59 |
| 11.8 | CCO[C@@H](Cc1ccc(OCc2cccc(I)c2)cc1)C(=O)NO [Compound 7, (2S)-2-ethoxy-N-hydroxy-3-{4-[(3-iodobenzyl)oxy]phenyl}propanamide] | – |
| 30.5 | CCO[C@H](Cc1ccc(OCC(=O)c2cccc(OC)c2)cc1)C(=O)N(C)OC [Compound 11, (2R)-2-ethoxy-N-methoxy-3-{4-[2-(3-methoxyphenyl)-2-oxoethoxy]phenyl}-N-methylpropanamide] | – |
| 27.7 | CCO[C@@H](Cc1ccc(OCc2cc(OC)ccn2)cc1)C(=O)N(C)OC [Compound 4, (2S)-2-ethoxy-N-methoxy-3-{4-[(4-methoxypyridin-2-yl)methoxy]phenyl}-N-methylpropanamide] | – |
| 58.9 | CCO[C@@H](Cc1ccc(OCc2ccccn2)cc1)C(=O)NO [Compound 1, (2S)-2-ethoxy-N-hydroxy-3-[4-(pyridin-2-ylmethoxy)phenyl]propanamide hydrogen chloride] | – |
| 27.7 | CCO[C@@H](Cc1ccc(OC[C@@H](O)c2cccc(OC)c2)cc1)C(=O)N(C)OC [Compound 17] | – |
| 10.9 | CCO[C@@H](Cc1ccc(OCCc2ccc(OS(C)(=O)=O)cc2)cc1)C(=O)N(C)O [Compound 20] | – |
| > 195 | CCO[C@@H](Cc1ccc(OCc2cc(OC)ccn2)cc1)C(=O)N(C)O.Cl [Compound 6, (2S)-2-ethoxy-N-hydroxy-3-{4-[(4-methoxypyridin-2-yl)methoxy]phenyl}-N-methylpropanamide hydrochloride] | 0.55 |
| > 250 | CCO[C@@H](Cc1ccc(OCc2ccc(S(C)(=O)=O)cc2)cc1)C(=O)NOC [Compound 9, (2S)-2-ethoxy-N-methoxy-3-(4-{[4-(methylsulfonyl)benzyl]oxy}phenyl) propanamide] | – |
| 7.9 | CCO[C@@H](Cc1ccc(OCCc2ccc(OS(C)(=O)=O)cc2)cc1)C(=O)NOC [Compound 10] | – |
| > 250 | CCO[C@H](Cc1ccc(OC[C@H](O)c2cccc(OC)c2)cc1)C(=O)NOC [Compound 19, (2R)-2-ethoxy-3-{4-[(2R)-2-hydroxy-2-(3-methoxyphenyl)ethoxy]phenyl}-N-methoxypropanamide] | – |
| > 250 | CCO[C@@H](Cc1ccc(OCc2cc(OC)ccn2)cc1)C(=O)NO [Compound 3, (2S)-2-ethoxy-N-hydroxy-3-{4-[(4-methoxypyridin-2-yl)methoxy]phenyl}propanamide hydrochloride] | – |
| 98.5 | CCO[C@H](Cc1ccc(OCC(=O)c2cccc(OC)c2)cc1)C(=O)NOC [Compound 8, (2R)-2-ethoxy-N-methoxy-3-{4-[2-(3-methoxyphenyl)-2-oxoethoxy]phenyl}propanamide] | – |
| > 200 | CCO[C@@H](Cc1ccc(OC[C@H](O)c2cccc(OC)c2)cc1)C(=O)NOC [Compound 15, (2S)-2-ethoxy-3-{4-[(2R)-2-hydroxy-2-(3-methoxyphenyl)ethoxy]phenyl}-N-methoxypropanamide] | – |
| > 100 | CCO[C@H](Cc1ccc(OC[C@@H](O)c2cccc(OC)c2)cc1)C(=O)NO [Compound 2, (2R)-2-ethoxy-N-hydroxy-3-{4-[(2S)-2-hydroxy-2-(3-methoxyphenyl)ethoxy]phenyl}propanamide] | – |
